Reference: US20220339135A1, “COMPOSITIONS AND METHODS FOR MODULATING AN INFLAMMATORY RESPONSE” (Enzychem Lifesciences Corporation, priority 2019, published 2022)

Experiments:
[1] = test system: RIPK1, RIPK3, MLKL in THP-1 cells; experiment: MSU-induced phosphorylation of RIPK1, RIPK3, MLKL, western blot; type: cell-based, human
Experimental: (A) THP-1 cells were pre-incubated with PLAG (100 μg/mL) for an hour and then stimulated with MSU crystal (400 μg/mL). After 0, 7, 15, 30, 60 minutes, cells were harvested. (B) THP-1 cells were pre-incubated with PLAG (1, 10, 100 μg/mL) for 1 hour and then stimulated with MSU crystal (400 μg/mL). After 1 h, cells were harvested. THP-1 cells were lysis with 1×RIPA lysis buffer containing the protease inhibitor (Roche, Basel, Switzerland) and phosphatase inhibitor (Thermo Scientific, MA, USA) on ice for 30 min. The cell lysates were clarified by centrifugation (13,000 rpm, 4° C., 30 min), and the protein quantity from each sample was examined by Bradford assay (Bio-Rad). Proteins from each sample were separated by sodium dodecyl sulfate-polyacrylamide gel electrophoresis on 12% polyacrylamide gels and the proteins were blotted onto a PVDF membrane (Millipore Corporation, Germany). The membrane was blocked with 5% non-fat dried milk (BD bioscience) in PBS containing 0.05% Tween-20 (Calbiochem) for 1 hour. The membrane was incubated with anti-phospho-RIPK3 (abcam), RIPK3 (novusbio), p-MLKL (abcam), MLKL (Sigma), p-RIP (Cell Signaling Technology), RIPK1 (R&D System) and β-actin (Cell Signaling Technology) at 4° C. overnight. […] Target proteins were detected with Immobilon Western Chemiluminescent HRP Substrate (Millipore Corporation).

[2] = Micelle particle size by DLS and TEM; type: physicochemical; settings: micelles
Experimental: The formation of micelles composed of PLAG or POPC was prepared in RPMI1640 medium by vigorous stirring at a final concentration of 10 mg/ml. The particle size of PLAG and POPC micelles was measured by dynamic light scattering (Zetasizer 3000HS, Malvern Instruments Ltd., UK). The morphological examination of the micelles was performed by transmission electron microscopy (TEM) by dropping the samples into the carbon films on the copper grid for viewing with 2% (weight per volume) phosphotungstic acid staining.

[3] = test system: total body irradiation by γ-ray; experiment: Survival rate and body weight of γ-ray radiated mice; type: in vivo
Experimental: 11 weeks Balb/c mice (10 males and 10 females) were divided into two groups: 1) radiated group (6.5Gy of TBI by γ-ray) and 2) PLAG (250 mg/kg of PLAG) administrated group with radiation (6.5Gy of TBI by γ-ray) (FIG. 39A). 6.5Gy of TBI was radiated on Day 0 and 250 mpk of PLAG was orally administrated from day 0 to day 30 daily. The survival rate of the mice was recorded daily until day 30.
11 weeks Balb/c mice (10 males and 10 females) were divided into four groups: 1) radiated group (6.11Gy of TBI by γ-ray), 2) PLAG (10 mg/kg of PLAG) administrated group with radiation (6.11Gy of TBI by γ-ray), 3) PLAG (50 mg/kg of PLAG) administrated group with radiation (6.11Gy of TBI by γ-ray), and 4) PLAG (250 mg/kg of PLAG) administrated group with radiation (6.11Gy of TBI by γ-ray) (FIG. 40A). 6.11Gy of TBI was radiated on Day 0 and […] of PLAG was orally administrated from day 1 to day 30 daily. The survival rate of the mice, was recorded daily until day 30.
11 weeks Balb/c mice (10 males and 10 females) were divided into four groups: 1) radiated group (6.11Gy of TBI by γ-ray), 2) PLAG (10 mg/kg of PLAG) administrated group with radiation (6.11Gy of TBI by γ-ray), 3) PLAG (50 mg/kg of PLAG) administrated group with radiation (6.11Gy of TBI by γ-ray), and 4) PLAG (250 mg/kg of PLAG) administrated group with radiation (6.11Gy of TBI by γ-ray). 6.11Gy of TBI was radiated on Day 0, and […] of PLAG was orally administrated from day 1 to day 30 daily. Body weight of the mice was recorded daily until day 30.

[4] = test system: Rac1, p47phox in BMDMs and THP-1 cells; experiment: Rac1 membrane translocation and p47phox phosphorylation; type: cell-based
Experimental: Total cells were lysed on ice for 30 minutes in RIPA buffer composed of 50 mM Tris-HCl (pH 7.4), 150 mM NaCl, 2 mM EDTA, 1% NP-40, 0.5% sodium deoxycholate, 0.1% SDS, 1 mM phenylmethylsulfonyl fluoride (PMSF), 10 mM sodium fluoride, 2 mM sodium pyrophosphate, 10 mM β-glycerophosphate, 10 mM sodium orthovanadate. Membrane-and-cytoplasmic protein fractions of cultured cells were obtained with Mem-PER Plus Membrane Protein Extraction Kit (Thermo Scientific, MA, USA) according to the manufacturer's instructions. The lysates were centrifuged at 13,000 rpm for 20 minutes at 4° C. and protein concentrations were determined using the Bradford assay (Bio-Rad Laboratories). Denatured samples were mixed with a 5×SDS-PAGE loading buffer and heated to 100° C. for 15 min. The samples were separated on the 10% of SDS-PAGE gel and transferred to polyvinylidene difluoride (PVDF) membranes (Merck Millipore Corporation, MA, USA). Membranes were blocked with 5% non-fat milk in PBS (10 mM Tris-HCl, pH7.5, 150 mM NaCl) for 1 h and probed with primary antibodies against ERK1/2, phospho-ERK1/2, P38, phospho-P38, SAPK/JNK, phospho-SAPK/JNK, Na, K-ATPase, α-Tubulin, and β-actin from Cell Signaling Technology (MA, USA), Rac1 from Merck Millipore Corporation), p47phox and phospho-p47phox from Invitrogen, adenosine receptor A1 from Abcam, β arrestin-1 from Santa Cruz Technology for overnight at 4° C. […]

[5] = test system: SR-A silenced cells; experiment: Phagocytosis and ROS in SR-A silenced cells; type: cell-based

In the case of `CCCCC/C=C\C/C=C\CCCCCCCC(=O)OC(COC(C)=O)COC(=O)CCCCCCCCCCCCCCC` (racemic) [PLAG, 1-palmitoyl-2-linoleoyl-3-acetylglycerol], the “MSU-induced phosphorylation of RIPK3 and MLKL” value ([1]; PLAG 100 μg/mL, time course) was “accelerated”, the “MSU-induced phosphorylation of RIPK1 and RIPK3” value ([1]; PLAG 1, 10, 100 μg/mL, dose-dependent) was “modulated” and the “average diameter (DLS)” value [2] was 107.6 nm. For the same molecule, the “particle shape (TEM)” value [2] was “spherical shape”, the “number of mice whose body weight loss is more than 10% and 20%” value ([3]; 6.11Gy TBI, 50mpk and 250 mpk) was “significantly less number” and the “body weight after radiation” value ([3]; 6.11Gy TBI, PLAG 10 mg/kg) was “fluctuating and decreasing bodyweight”. For the same molecule, the “survival rate after 30 days of radiation” value ([3]; 6.11Gy TBI, PLAG 10 mg/kg) was 5%, the body weight loss ([3]; 6.11Gy TBI, PLAG 50 mg/kg) was “less than 10%” and the “survival rate after 30 days of radiation” value ([3]; 6.11Gy TBI, PLAG 50 mg/kg) was 40%. For the same molecule, the body weight loss ([3]; 6.11Gy TBI, PLAG 250 mg/kg) was “less than 10%”, the “survival rate after 30 days of radiation” value ([3]; 6.11Gy TBI, PLAG 250 mg/kg) was 80% and the “survival rate relative to the radiated group” value ([3]; 6.5Gy TBI, PLAG 250 mg/kg) was 12 times. The “survival rate 30 days after radiation” value ([3]; 6.5Gy TBI, PLAG 250 mg/kg daily day 0-30) was 60%, the “gemcitabine-induced p47phox phosphorylation” value ([4]; dose-dependent) was “effectively inhibited” and the “translocation of Rac1 from the cytosol to the membrane” value ([4]; gemcitabine-stimulated THP-1 cells) was “significantly inhibited”. The “PAMP molecules-induced intracellular ROS” value ([5]; SR-A silenced cells) was “does not increase” and the “enhanced phagocytosis by PLAG” value ([5]; knockdown of SR-A) was “does not show the enhanced phagocytosis”.
